ChEMBL document CHEMBL6120980, “Discovery of First Branched-Chain Ketoacid Dehydrogenase Kinase (BDK) Inhibitor Clinical Candidate PF-07328948” (J Med Chem, 2025)
pIC50: −log10 of the molar value. Each block holds one molecule with its values, some of them ahead of it.

Legend:
[1] = human, hepatocytes, 4 h, 1 µM
physchem = conditions: octanol/water
in vitro = conditions: dog, MDCK
[2] = biological target: Branched-chain alpha-ketoacid dehydrogenase kinase (Mus musculus, UniProt O55028); assay: Inhibition of mouse BDK using LBD-Tev-PhosphoPep/Lipoyl as substrate preincubated for 15 mins followed by substrate/ATP addition and measured after 90 mins by TR-FRET assay
[3] = biological target: UDP-glucuronosyltransferase 1A1 (Homo sapiens, UniProt P22309); assay: Drug metabolism assessed as recombinant human UGT1A1-mediated (2S,3S,4S,5R)-6-((6-fluoro-3-(2,4,5-trifluoro-3-methoxyphenyl)benzo[b]thiophene-2-carbonyl)oxy)-3,4,5-trihydroxytetrahydro-2H-pyran-2-carboxylic acid metabolite formation at 1 uM; type: ADME; conditions: recombinant enzyme
UDP-glucuronosyltransferase 1A1, sequence (P22309 whole entry): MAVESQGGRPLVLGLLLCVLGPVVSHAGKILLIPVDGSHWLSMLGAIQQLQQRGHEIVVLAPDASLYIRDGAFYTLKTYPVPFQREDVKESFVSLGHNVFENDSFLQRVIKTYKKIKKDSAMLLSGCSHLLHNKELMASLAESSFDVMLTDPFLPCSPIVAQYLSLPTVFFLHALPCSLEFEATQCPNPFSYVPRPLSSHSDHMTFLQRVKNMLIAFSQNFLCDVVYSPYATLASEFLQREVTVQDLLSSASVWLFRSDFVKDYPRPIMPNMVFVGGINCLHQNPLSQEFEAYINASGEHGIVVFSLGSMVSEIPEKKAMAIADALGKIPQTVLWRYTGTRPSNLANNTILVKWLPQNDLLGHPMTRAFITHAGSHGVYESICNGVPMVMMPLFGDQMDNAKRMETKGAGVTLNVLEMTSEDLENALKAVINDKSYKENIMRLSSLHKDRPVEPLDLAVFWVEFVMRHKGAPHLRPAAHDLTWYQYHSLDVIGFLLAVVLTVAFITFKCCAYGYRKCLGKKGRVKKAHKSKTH

[4] = biological target: UDP-glucuronosyltransferase 1A3 (Homo sapiens, UniProt P35503); assay: Drug metabolism assessed as recombinant human UGT1A3-mediated (2S,3S,4S,5R)-6-((6-fluoro-3-(2,4,5-trifluoro-3-methoxyphenyl)benzo[b]thiophene-2-carbonyl)oxy)-3,4,5-trihydroxytetrahydro-2H-pyran-2-carboxylic acid metabolite formation at 1 uM; type: ADME; conditions: recombinant enzyme
[5] = biological target: UDP-glucuronosyltransferase 1A9 (Homo sapiens, UniProt O60656); assay: Drug metabolism assessed as recombinant human UGT1A9-mediated (2S,3S,4S,5R)-6-((6-fluoro-3-(2,4,5-trifluoro-3-methoxyphenyl)benzo[b]thiophene-2-carbonyl)oxy)-3,4,5-trihydroxytetrahydro-2H-pyran-2-carboxylic acid metabolite formation at 1 uM; type: ADME; conditions: recombinant enzyme
[6] = biological target: UDP-glucuronosyltransferase 2B4 (Homo sapiens, UniProt P06133); assay: Drug metabolism assessed as recombinant human UGT2B4-mediated (2S,3S,4S,5R)-6-((6-fluoro-3-(2,4,5-trifluoro-3-methoxyphenyl)benzo[b]thiophene-2-carbonyl)oxy)-3,4,5-trihydroxytetrahydro-2H-pyran-2-carboxylic acid metabolite formation at 1 uM; type: ADME; conditions: recombinant enzyme
[7] = biological target: UDP-glucuronosyltransferase 2B15 (Homo sapiens, UniProt P54855); assay: Drug metabolism assessed as recombinant human UGT2B15-mediated (2S,3S,4S,5R)-6-((6-fluoro-3-(2,4,5-trifluoro-3-methoxyphenyl)benzo[b]thiophene-2-carbonyl)oxy)-3,4,5-trihydroxytetrahydro-2H-pyran-2-carboxylic acid metabolite formation at 1 uM; type: ADME; conditions: recombinant enzyme
UDP-glucuronosyltransferase 2B15, sequence (P54855 whole entry): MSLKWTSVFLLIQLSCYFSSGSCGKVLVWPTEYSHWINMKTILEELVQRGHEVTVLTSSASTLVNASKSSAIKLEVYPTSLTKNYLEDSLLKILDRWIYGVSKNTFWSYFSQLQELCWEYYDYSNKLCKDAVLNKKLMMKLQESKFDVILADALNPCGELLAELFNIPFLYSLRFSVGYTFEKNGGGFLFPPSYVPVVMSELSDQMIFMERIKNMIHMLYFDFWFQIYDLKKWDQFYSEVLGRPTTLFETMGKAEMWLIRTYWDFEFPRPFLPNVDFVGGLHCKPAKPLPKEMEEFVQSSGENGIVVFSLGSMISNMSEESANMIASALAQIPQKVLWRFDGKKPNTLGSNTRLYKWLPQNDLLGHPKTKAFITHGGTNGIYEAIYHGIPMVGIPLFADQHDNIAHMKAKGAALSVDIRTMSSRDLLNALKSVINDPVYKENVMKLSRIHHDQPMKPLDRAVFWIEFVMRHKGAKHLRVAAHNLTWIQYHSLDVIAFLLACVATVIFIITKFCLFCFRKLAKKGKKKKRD

Cytochrome P450 = assay: Drug metabolism in human hepatocytes assessed as CYP450-catalyzed o-demethylation mediated 6-fluoro-3-(2,4,5-trifluoro-3-hydroxyphenyl)benzo[b]thiophene-2-carboxylic acid metabolite formation by mass spectrometric analysis; type: ADME, cell-based, Hepatocyte
[8] = biological target: Solute carrier family 22 member 6 (Homo sapiens, UniProt Q4U2R8); assay: Inhibition of human OAT1 expressed in HEK293 cells using p-aminohippuric acid as substrate preincubated for 30 mins followed by substrate addition and measured after 1 to 4 mins; type: cell-based
Solute carrier family 22 member 6, sequence (Q4U2R8 whole entry): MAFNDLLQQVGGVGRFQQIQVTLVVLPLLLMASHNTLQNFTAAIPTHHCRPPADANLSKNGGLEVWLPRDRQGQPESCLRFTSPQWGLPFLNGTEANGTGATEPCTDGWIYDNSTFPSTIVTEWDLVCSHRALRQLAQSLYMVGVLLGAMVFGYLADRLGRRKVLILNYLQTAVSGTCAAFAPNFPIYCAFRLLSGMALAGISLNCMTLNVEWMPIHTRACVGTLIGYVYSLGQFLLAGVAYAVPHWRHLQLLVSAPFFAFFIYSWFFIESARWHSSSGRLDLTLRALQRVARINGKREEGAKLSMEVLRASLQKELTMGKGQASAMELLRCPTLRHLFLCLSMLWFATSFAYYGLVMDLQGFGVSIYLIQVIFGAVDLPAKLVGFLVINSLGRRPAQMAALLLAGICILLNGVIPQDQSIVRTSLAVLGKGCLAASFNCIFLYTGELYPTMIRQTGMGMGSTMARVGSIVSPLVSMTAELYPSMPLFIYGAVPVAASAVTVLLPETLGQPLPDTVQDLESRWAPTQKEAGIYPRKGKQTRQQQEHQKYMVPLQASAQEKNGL

Cytochrome P450 2C19 = Cytochrome P450 2C19 (Homo sapiens, UniProt P33261); assay: Reversible inhibition of human CYP2C19-mediated S-mephenytoin-4'-hydroxylation in human liver microsomes using S-mephenytoin as substrate in presence of NADPH; type: ADME, Microsome
Cytochrome P450 2C19, sequence (P33261 whole entry): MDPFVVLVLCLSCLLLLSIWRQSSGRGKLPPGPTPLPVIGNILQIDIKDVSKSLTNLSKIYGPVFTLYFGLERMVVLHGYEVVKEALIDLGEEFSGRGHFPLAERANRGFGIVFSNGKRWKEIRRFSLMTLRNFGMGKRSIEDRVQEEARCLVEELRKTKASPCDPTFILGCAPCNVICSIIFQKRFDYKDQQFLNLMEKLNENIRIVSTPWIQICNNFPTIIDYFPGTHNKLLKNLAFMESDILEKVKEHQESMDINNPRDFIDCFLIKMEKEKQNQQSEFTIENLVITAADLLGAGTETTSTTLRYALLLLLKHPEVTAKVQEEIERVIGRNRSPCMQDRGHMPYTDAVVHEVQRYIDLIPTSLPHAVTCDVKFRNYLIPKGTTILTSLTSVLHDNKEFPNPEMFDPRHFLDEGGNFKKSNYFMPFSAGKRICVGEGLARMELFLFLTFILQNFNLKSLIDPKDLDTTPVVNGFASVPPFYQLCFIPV

Cytochrome P450 2D6 = Cytochrome P450 2D6 (Homo sapiens, UniProt P10635); assay: Reversible inhibition of human CYP2D6-mediated dextromethorphan-O-demethylation in human liver microsomes using dextromethorphan as substrate in presence of NADPH; type: ADME, Microsome
Cytochrome P450 3A4 [9] = biological target: T1, Cytochrome P450 3A4 (Homo sapiens, UniProt P08684); assay: Reversible inhibition of human CYP3A4-mediated midazolam-1'-hydroxylation in human liver microsomes using midazolam as substrate in presence of NADPH; type: ADME, Microsome
T1 sequence (P08684 whole entry): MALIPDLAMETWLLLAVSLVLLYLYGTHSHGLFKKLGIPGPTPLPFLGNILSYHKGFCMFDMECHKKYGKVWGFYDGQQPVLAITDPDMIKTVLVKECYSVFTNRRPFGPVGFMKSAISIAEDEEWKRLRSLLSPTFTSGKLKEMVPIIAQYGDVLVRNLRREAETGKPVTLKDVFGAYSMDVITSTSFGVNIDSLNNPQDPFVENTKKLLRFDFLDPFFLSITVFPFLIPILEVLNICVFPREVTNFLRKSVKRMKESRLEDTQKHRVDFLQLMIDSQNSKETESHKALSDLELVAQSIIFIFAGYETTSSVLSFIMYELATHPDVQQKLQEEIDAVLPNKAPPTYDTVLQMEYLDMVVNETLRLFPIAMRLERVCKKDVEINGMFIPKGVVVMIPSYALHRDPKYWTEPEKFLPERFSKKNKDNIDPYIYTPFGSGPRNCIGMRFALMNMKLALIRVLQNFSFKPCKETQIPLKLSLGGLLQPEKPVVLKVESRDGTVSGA

Cytochrome P450 3A4 [10] = biological target: T1, Cytochrome P450 3A4; assay: Reversible inhibition of human CYP3A4-mediated testosterone-6beta-hydroxylation in human liver microsomes using testosterone as substrate in presence of NADPH; type: ADME, Microsome
Cytochrome P450 3A5 = Cytochrome P450 3A5 (Homo sapiens, UniProt P20815); assay: Reversible inhibition of human CYP3A5-mediated nifedipine oxidation in human liver microsomes using nifedipine as substrate in presence of NADPH; type: ADME, Microsome
Cytochrome P450 1A2 = Cytochrome P450 1A2 (Homo sapiens, UniProt P05177); assay: Reversible inhibition of human CYP1A2-mediated phenacetin-O-dealkylation in human liver microsomes using phenacetin as substrate in presence of NADPH; type: ADME, Microsome
Cytochrome P450 2B6 = Cytochrome P450 2B6 (Homo sapiens, UniProt P20813); assay: Reversible inhibition of human CYP2B6-mediated bupropion hydroxylation in human liver microsomes using bupropion as substrate in presence of NADPH; type: ADME, Microsome
Cytochrome P450 2B6, sequence (P20813 whole entry): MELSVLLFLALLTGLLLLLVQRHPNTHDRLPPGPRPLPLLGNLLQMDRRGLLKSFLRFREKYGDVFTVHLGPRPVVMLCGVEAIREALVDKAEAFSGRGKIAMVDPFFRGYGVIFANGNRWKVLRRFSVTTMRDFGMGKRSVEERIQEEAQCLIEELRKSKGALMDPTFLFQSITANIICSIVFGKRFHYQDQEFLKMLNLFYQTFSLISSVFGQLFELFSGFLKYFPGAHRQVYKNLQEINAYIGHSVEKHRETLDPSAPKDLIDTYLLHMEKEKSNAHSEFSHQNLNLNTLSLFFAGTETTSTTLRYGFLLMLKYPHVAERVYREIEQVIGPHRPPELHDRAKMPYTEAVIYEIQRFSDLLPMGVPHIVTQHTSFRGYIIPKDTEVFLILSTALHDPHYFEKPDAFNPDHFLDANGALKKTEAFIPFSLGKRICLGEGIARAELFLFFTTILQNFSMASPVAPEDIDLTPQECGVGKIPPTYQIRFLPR

Cytochrome P450 2C8 = Cytochrome P450 2C8 (Homo sapiens, UniProt P10632); assay: Reversible inhibition of human CYP2C8-mediated amodiaquine N-dealkylation in human liver microsomes using amodiaquine as substrate in presence of NADPH; type: ADME, Microsome
Cytochrome P450 2C9 = Cytochrome P450 2C9 (Homo sapiens, UniProt P11712); assay: Reversible inhibition of human CYP2C9-mediated diclofenac-4'-hydroxylation in human liver microsomes using diclofenac as substrate in presence of NADPH; type: ADME, Microsome
[11] = biological target: Organic anion transporter 3 (Homo sapiens, UniProt Q8TCC7); assay: Inhibition of human OAT3 expressed in HEK293 cells using estrone-3-sulfate as substrate preincubated for 30 mins followed by substrate addition and measured after 1 to 4 mins; type: cell-based
[12] = biological target: Solute carrier organic anion transporter family member 1B1 (Homo sapiens, UniProt Q9Y6L6); assay: Inhibition of human OATP1B1 expressed in HEK293 cells using rosuvastatin as substrate preincubated for 30 mins followed by substrate addition and measured after 1 to 4 mins; type: cell-based
Solute carrier organic anion transporter family member 1B1, sequence (Q9Y6L6 whole entry): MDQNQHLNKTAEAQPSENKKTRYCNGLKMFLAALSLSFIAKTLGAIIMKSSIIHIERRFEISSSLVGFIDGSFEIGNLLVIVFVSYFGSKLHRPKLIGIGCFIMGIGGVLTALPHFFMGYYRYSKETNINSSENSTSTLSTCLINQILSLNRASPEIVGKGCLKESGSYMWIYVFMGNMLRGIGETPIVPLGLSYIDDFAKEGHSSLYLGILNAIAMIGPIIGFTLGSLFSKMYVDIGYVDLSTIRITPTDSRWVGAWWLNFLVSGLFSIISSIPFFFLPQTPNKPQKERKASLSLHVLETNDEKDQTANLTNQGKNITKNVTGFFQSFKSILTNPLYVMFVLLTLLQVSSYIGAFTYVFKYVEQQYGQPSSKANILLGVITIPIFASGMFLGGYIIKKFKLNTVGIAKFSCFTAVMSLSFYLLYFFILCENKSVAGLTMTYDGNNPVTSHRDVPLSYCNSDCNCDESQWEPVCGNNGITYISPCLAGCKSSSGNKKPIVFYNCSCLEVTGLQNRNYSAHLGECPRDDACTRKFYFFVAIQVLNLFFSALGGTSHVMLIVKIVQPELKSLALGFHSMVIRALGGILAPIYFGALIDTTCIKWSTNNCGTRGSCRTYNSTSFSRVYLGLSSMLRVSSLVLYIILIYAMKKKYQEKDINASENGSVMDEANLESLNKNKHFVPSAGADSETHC

[13] = biological target: ATP-dependent translocase ABCB1 (Homo sapiens, UniProt P08183); assay: Inhibition of human MDR1 expressed in HEK293 cell vesicles using N-methylquinidine as substrate preincubated for 30 mins followed by substrate addition and measured after 1 to 4 mins; type: subcellular, Vesicle
[14] = biological target: Solute carrier organic anion transporter family member 1B3 (Homo sapiens, UniProt Q9NPD5); assay: Inhibition of human OATP1B3 expressed in HEK293 cells using rosuvastatin as substrate preincubated for 30 mins followed by substrate addition and measured after 1 to 4 mins; type: cell-based
[15] = biological target: Solute carrier family 22 member 1 (Homo sapiens, UniProt O15245); assay: Inhibition of human OCT1 expressed in HEK293 cells using [14C]metformin as substrate preincubated for 30 mins followed by substrate addition and measured after 1 to 4 mins; type: cell-based
[16] = biological target: Solute carrier family 22 member 2 (Homo sapiens, UniProt O15244); assay: Inhibition of human OCT2 expressed in HEK293 cells using [14C]metformin as substrate preincubated for 30 mins followed by substrate addition and measured after 1 to 4 mins; type: cell-based
Solute carrier family 22 member 2, sequence (O15244 whole entry): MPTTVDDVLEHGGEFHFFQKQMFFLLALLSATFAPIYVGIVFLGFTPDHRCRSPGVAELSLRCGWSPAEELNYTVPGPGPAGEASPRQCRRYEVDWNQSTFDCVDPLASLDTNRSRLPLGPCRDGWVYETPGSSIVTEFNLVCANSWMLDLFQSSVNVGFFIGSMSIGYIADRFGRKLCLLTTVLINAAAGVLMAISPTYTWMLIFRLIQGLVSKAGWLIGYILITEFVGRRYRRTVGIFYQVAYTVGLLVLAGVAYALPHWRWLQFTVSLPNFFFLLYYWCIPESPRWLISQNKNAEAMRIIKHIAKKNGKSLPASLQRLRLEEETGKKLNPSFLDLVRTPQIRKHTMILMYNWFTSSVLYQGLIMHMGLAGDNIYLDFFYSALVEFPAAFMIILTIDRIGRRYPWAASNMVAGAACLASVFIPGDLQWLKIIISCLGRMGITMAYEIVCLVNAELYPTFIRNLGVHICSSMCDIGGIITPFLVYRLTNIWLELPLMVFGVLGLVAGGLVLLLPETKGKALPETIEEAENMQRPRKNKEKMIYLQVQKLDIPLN

[17] = biological target: Multidrug and toxin extrusion protein 1 (Homo sapiens, UniProt Q96FL8); assay: Inhibition of human MATE1 expressed in HEK293 cells using [14C]metformin as substrate preincubated for 30 mins followed by substrate addition and measured after 1 to 4 mins; type: cell-based
Multidrug and toxin extrusion protein 1, sequence (Q96FL8 whole entry): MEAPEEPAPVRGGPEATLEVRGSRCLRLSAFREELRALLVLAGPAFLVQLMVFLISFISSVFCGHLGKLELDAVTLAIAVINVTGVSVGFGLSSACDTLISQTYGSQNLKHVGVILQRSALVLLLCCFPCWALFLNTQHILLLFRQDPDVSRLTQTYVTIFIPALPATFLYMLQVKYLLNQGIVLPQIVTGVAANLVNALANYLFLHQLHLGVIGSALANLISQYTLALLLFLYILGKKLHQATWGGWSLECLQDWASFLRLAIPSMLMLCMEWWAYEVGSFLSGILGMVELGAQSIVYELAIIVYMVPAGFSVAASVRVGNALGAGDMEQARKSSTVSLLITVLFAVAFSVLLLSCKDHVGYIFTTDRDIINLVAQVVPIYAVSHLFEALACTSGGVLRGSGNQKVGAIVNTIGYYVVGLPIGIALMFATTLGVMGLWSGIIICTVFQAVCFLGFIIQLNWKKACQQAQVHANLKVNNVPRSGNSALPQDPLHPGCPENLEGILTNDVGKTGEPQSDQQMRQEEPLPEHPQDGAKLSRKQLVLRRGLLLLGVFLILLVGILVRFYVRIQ

[18] = biological target: Multidrug and toxin extrusion protein 2 (Homo sapiens, UniProt Q86VL8); assay: Inhibition of human MATE2K expressed in HEK293 cells using [14C]metformin as substrate preincubated for 30 mins followed by substrate addition and measured after 1 to 4 mins; type: cell-based
[19] = biological target: Branched-chain alpha-ketoacid dehydrogenase kinase (Homo sapiens) (UniProt O14874); assay: Potency index, ratio of PF-07208254 IC50 to test compound IC50 for inhibition of human BDK using LBD-Tev-PhosphoPep/Lipoyl as substrate preincubated for 15 mins followed by substrate/ATP addition and measured after 90 mins by TR-FRET assay
[20] = biological target: Branched-chain alpha-ketoacid dehydrogenase kinase (Homo sapiens) (UniProt O14874); assay: Potency index, ratio of PF-07208254 IC50 to test compound IC50 for inhibition of BDK in human skeletal myocyte using BCKDHA as substrate assessed as inhibition of substrate phosphorylation incubated for 60 mins by AlphaLISA surefire ultra assay
[21] = Retention time of compound in phosphate buffer at pH 7.4 measured after approximately 150 mins by HPLC-UV analysis; type: physicochemical
[22] = Drug degradation in phosphate/D2O buffer at pH 7.6 assessed as half-life by H1-NMR analysis; type: ADME
[23] = human, hepatocytes, 4 h, 5 µM

CLH(app) [1]: < 2 µL/min
logD (physchem): 0.5
Papp A→B (in vitro): 30 ×10⁻⁶ cm/s
Compound: O=C(O)c1sc2cc(F)ccc2c1Cl

CLH(app) [1]: 43 µL/min
logD (physchem): 1.5
Papp A→B (in vitro): 16 ×10⁻⁶ cm/s
Compound: CCOc1c(F)ccc(-c2c(C(=O)O)sc3cc(F)ccc23)c1F

Compound: O=C(O)c1sc2cc(Cl)ccc2c1Cl
CLH(app) [1]: 5.2 µL/min
logD (physchem): 0.7
Papp A→B (in vitro): 31 ×10⁻⁶ cm/s

CLH(app) [1]: 26 µL/min
logD (physchem): 1.1
Papp A→B (in vitro): 26 ×10⁻⁶ cm/s
Compound: COc1c(F)ccc(-c2c(C(=O)O)sc3cc(F)ccc23)c1F

pIC50 [2]: 7.39
Drug metabolism [3]: metabolite_detected
Drug metabolism [4]: metabolite_detected
Drug metabolism [5]: metabolite_detected
Drug metabolism [6]: metabolite_detected
Drug metabolism [7]: metabolite_detected
Drug metabolism (Cytochrome P450): metabolite_detected
pIC50 [8]: 5.48
pIC50 (Cytochrome P450 2C19): < 4.00
pIC50 (Cytochrome P450 2D6): < 4.00
pIC50 (Cytochrome P450 3A4 [9]): < 4.00
pIC50 (Cytochrome P450 3A4 [10]): < 4.00
pIC50 (Cytochrome P450 3A5): < 4.00
pIC50 (Cytochrome P450 1A2): 5.96
pIC50 (Cytochrome P450 2B6): 5.17
pIC50 (Cytochrome P450 2C8): 4.63
pIC50 (Cytochrome P450 2C9): 6.00
pIC50 [11]: 6.17
pIC50 [12]: 5.35
pIC50 [13]: < 4.10
pIC50 [14]: < 4.10
pIC50 [15]: < 4.10
pIC50 [16]: < 4.10
Compound: COc1c(F)c(F)cc(-c2c(C(=O)O)sc3cc(F)ccc23)c1F
pIC50 [17]: < 4.10
pIC50 [18]: < 4.10

Ratio IC50 [19]: 7
Ratio IC50 [20]: 36
CLH(app) [1]: 21 µL/min
logD (physchem): 1
Papp A→B (in vitro): 20 ×10⁻⁶ cm/s
Compound: COc1c(F)cc(F)c(-c2c(C(=O)O)sc3cc(F)ccc23)c1F

Retention_time [21]: 17.6 min
half-life [22]: ~82 min
Compound: COc1c(F)c(F)cc(-c2c(C(=O)OC3O[C@H](C(=O)O)[C@@H](O)[C@H](O)[C@H]3O)sc3cc(F)ccc23)c1F (some centres undefined)

logD (physchem): 1.6
Papp A→B (in vitro): 11 ×10⁻⁶ cm/s
Compound: Cc1c(F)c(F)cc(-c2c(C(=O)O)sc3cc(F)ccc23)c1F

CLH(app) [1]: 23 µL/min
logD (physchem): 1
Papp A→B (in vitro): 28 ×10⁻⁶ cm/s
Compound: COc1cccc(-c2c(C(=O)O)sc3cc(F)ccc23)c1F

CLH(app) [1]: 32 µL/min
logD (physchem): 1.4
Papp A→B (in vitro): 8.5 ×10⁻⁶ cm/s
Compound: COc1cccc(-c2c(C(=O)O)sc3cc(F)ccc23)c1

CLH(app) [1]: 23 µL/min
logD (physchem): 1.3
Papp A→B (in vitro): 10 ×10⁻⁶ cm/s
Compound: O=C(O)c1sc2cc(F)ccc2c1-c1cc(F)c(F)cc1F

CLH(app) [1]: < 2.7 µL/min
PB [23]: 103 pmol
logD (physchem): 0.1
Papp A→B (in vitro): 14 ×10⁻⁶ cm/s
Compound: O=C(O)c1sc2cc(F)sc2c1Cl

CLH(app) [1]: 52 µL/min
logD (physchem): 2.2
Papp A→B (in vitro): 11 ×10⁻⁶ cm/s
Compound: CCc1c(F)c(F)cc(-c2c(C(=O)O)sc3cc(F)ccc23)c1F

CLH(app) [1]: 31 µL/min
logD (physchem): 1.1
Compound: O=C(O)c1sc2cc(F)ccc2c1-c1ccccc1
